The target of one assay is PARG (Homo sapiens (Human), UniProt Q86W56). Kind of assay: PARG cell inhibition assay (PAR staining after H2O2). In kind it is cell-based. To be noted: UWB1.289 cells; value in brackets. Here is the method:
PARG Cell Inhibition Assay
UWB1.289 cells were used and the medium was 50% MEBM+50% 1640+3% FBS+1×PS. The cells were cultured according to ATCC standard operation and the cells were assayed in exponential growth phase for the experiment. Re-suspend cell in medium to a proper concentration, only cells with viability greater than 90% are used for assays.
Seed cells UWB1.289 in each culture medium, incubate overnight at 37° C., 5% CO2.
Test compounds was diluted with DMSO in gradient. Add test compound in cell plate, incubate at 37° C.
Add compounds and H2O2 mixture into cell plate, incubate at 37° C. Use 100 nM PDD00017273 as positive control.
Remove solution and recovery cell, incubate at 37° C.
Remove solution in the plate and add Cold-MeOH, incubate at −20° C.
Add blocking buffer into cell plate, incubate at RT.
Add PAR mAb, incubate at 4° C. overnight.
Add secondary antibody and DNA stain DRAQ5, incubate at RT.
Wash 3 times with PBST and 2 times with PBS. Turn plate upside down and centrifuge 1000 rpm 1 min.
Scan plate using LI-COR for best result.
Calculate the % inhibition according to the following formula: % inhibition=(compound signal value−negative control signal average)/(positive control signal average−negative control signal average)×100. Use the formula Y=Bottom+(Top−Bottom)/(1+10^((Log IC50−X)*HillSlope)) to fit the curve to obtain the IC50 values.

The target of another assay is PARG (389-976) (Homo sapiens (Human), UniProt Q86W56). Kind of assay: PARG enzyme inhibition assay (TR-FRET). In kind it is biochemical. Here is the method: PARG Enzyme Inhibition Assay
PARG in vitro assays were conducted in standard 384-well plates in a total volume of 15 μL.
On the technique in general: Time-resolved FRET reads energy transfer from a long-lived donor to a nearby acceptor.

As usually defined, the IC50 is the concentration needed to halve the response being measured.

PARG, sequence (Q86W56 whole entry): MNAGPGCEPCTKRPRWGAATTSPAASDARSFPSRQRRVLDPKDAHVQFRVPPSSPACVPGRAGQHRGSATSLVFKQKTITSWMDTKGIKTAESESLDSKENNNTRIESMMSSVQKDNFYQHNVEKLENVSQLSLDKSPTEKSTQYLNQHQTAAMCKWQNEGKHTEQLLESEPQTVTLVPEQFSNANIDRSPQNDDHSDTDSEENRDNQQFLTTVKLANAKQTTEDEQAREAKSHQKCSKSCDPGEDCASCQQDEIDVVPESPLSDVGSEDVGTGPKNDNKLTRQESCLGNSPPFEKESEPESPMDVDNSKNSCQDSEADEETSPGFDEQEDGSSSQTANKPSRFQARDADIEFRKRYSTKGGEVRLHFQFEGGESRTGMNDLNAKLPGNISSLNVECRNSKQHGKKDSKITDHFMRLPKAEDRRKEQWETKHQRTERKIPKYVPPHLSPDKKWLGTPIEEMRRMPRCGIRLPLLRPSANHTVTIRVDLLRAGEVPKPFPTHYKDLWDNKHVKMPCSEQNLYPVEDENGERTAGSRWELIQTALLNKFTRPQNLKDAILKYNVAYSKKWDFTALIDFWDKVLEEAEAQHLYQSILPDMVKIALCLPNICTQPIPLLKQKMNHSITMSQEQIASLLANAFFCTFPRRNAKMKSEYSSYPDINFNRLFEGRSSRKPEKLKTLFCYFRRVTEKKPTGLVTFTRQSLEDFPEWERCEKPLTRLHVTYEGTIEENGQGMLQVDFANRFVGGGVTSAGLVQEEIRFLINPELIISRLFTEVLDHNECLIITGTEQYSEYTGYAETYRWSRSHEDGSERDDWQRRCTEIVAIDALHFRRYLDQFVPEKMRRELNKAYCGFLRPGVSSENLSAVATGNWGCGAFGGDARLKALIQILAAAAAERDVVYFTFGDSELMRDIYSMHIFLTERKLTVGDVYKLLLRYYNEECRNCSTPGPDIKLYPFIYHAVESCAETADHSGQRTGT
PARG (389-976), sequence (Q86W56 389-976): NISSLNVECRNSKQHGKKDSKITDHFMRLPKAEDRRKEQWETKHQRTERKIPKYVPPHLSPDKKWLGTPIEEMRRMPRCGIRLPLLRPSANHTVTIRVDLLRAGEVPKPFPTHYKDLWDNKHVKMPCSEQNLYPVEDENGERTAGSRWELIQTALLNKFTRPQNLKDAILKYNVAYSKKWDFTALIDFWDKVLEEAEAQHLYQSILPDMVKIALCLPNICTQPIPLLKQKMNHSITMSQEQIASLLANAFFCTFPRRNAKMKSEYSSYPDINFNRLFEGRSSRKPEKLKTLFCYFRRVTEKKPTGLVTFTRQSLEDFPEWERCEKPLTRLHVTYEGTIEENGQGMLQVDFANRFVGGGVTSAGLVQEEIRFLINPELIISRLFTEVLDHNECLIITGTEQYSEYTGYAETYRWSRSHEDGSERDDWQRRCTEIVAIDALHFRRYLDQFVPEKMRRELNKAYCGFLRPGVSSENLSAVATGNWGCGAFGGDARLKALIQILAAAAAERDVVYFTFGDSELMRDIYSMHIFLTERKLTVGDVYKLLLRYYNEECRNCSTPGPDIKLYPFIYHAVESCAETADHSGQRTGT

`CC(C)C(=O)N1CCN(c2cc(S(=O)(=O)NC3(C)CC3)cc3c(-c4nnc(C(F)F)s4)n[nH]c23)CC1` [Compound 3]: the IC50 was 9.6 nM against PARG; below 100 nM against PARG (389-976) (Table 1, class symbol); 1 nM at PARG (389-976) (Table 1, value in brackets).
For the molecule `Cc1nc(C)c(Cn2nc(-c3nnc(C(F)F)s3)c3cc(S(=O)(=O)NC4(C)CC4)ccc32)s1` [compound 1, reference compound], the IC50 against PARG came out at 14.7 nM; against PARG (389-976) (Table 1, value in brackets), 1.9 nM.
For `Cc1cc(Cn2c(=O)n(Cc3cnc(C)s3)c(=O)c3cc(S(=O)(=O)NC4(C)CC4)ccc32)n(C)n1` [PDD00017273, reference compound], the IC50 against PARG was 13.4 nM; against PARG (389-976) (Table 3, class symbol), below 100 nM.
`CC(C)C(=O)N1CCN(c2cc(S(=O)(=O)NC3(C)CC3)cc3c(-c4nnc(C(F)F)s4)nn(C)c23)CC1` [Compound 5]: the IC50 was 3.1 nM at PARG; below 100 nM against PARG (389-976) (Table 1, class symbol); 0.5 nM against PARG (389-976) (Table 1, value in brackets).
Turning to `CC(C)C(=O)N1CCN(c2cc(S(=O)(=O)NC3(C#N)CC3)cc3c(-c4nnc(C(F)F)s4)nn(C)c23)CC1` [Compound 17], the IC50 was 3.6 nM on PARG; below 100 nM at PARG (389-976) (Table 2, class symbol); 0.6 nM against PARG (389-976) (Table 2, value in brackets).
The molecule `Cn1nc(-c2nnc(C(F)F)s2)c2cc(S(=O)(=O)NC3(C#N)CC3)cc(N3CCN(C(=O)C4CC4)CC3)c21` [Compound 24] came in with a half-maximal inhibitory concentration (IC50) against PARG (389-976) (Table 2, class symbol) below 100 nM.
On PARG (389-976) (Table 3, class symbol), `Cn1nc(-c2nnc(C(F)F)s2)c2cc(S(=O)(=O)NC3(C#N)CC3)cc(N3CC4(CCOCC4)C3)c21` [Compound 106] had a half-inhibitory concentration (IC50) below 100 nM.
Regarding `Cn1nc(-c2nnc(C(F)F)s2)c2cc(S(=O)(=O)NC3(C#N)CC3)cc(N3CCOCC3)c21` [Compound 29], the IC50 at PARG (389-976) (Table 2, class symbol) was below 100 nM.
Turning to `Cc1nc(C)c(Cn2cc(-c3nnc(C(F)F)s3)c3cc(S(=O)(=O)NC4(C)CC4)ccc32)s1` [Compound 8], the IC50 against PARG (389-976) (Table 1, class symbol) is below 100 nM.
Consider `C[C@H](N)C(=O)N1CC=C(c2cc(S(=O)(=O)NC3(C#N)CC3)cc3c(-c4nnc(C(F)F)s4)nn(C)c23)CC1` [Compound 81], for which the half-maximal inhibitory concentration (IC50) at PARG (389-976) (Table 3, class symbol) was below 100 nM.
On to `Cc1nnc(-c2nn(Cc3sc(C)nc3C)c3ccc(S(=O)(=O)NC4(C)CC4)cc23)s1` [Compound 2], for which, on PARG (389-976) (Table 1, class symbol), the IC50 was below 100 nM.
On PARG (389-976) (Table 2, class symbol), `Cc1nc(C)c(Cn2nc(-c3nnc(C(F)F)s3)c3cc(S(=O)(=O)NC4(C)CC4)cc(F)c32)s1` [Compound 14] came in with a concentration for half-maximal inhibition (IC50) below 100 nM.
At PARG (389-976) (Table 2, class symbol), `CCC(C)C(=O)N1CCN(c2cc(S(=O)(=O)NC3(C#N)CC3)cc3c(-c4nnc(C(F)F)s4)nn(C)c23)CC1` (stereo not shown) [Compound 50] displayed a half-maximal inhibitory concentration (IC50) below 100 nM.
At PARG (389-976) (Table 3, class symbol), `CC(C)C(=O)N1C2CCC1CN(c1cc(S(=O)(=O)NC3(C#N)CC3)cc3c(-c4nnc(C(F)F)s4)nn(CC(F)(F)F)c13)C2` [Compound 95] returned an IC50 below 100 nM.
`CC(C)C(=O)N1C2COCC1CN(c1cc(S(=O)(=O)NC3(C#N)CC3)cc3c(-c4nnc(C(F)F)s4)nn(C)c13)C2` [Compound 86]: the concentration for half-maximal inhibition (IC50) against PARG (389-976) (Table 3, class symbol) is below 100 nM.
`CC(C)C(=O)N1CC2(C1)CN(c1cc(S(=O)(=O)NC3(C#N)CC3)cc3c(-c4nnc(C(F)F)s4)nn(C)c13)C2` [Compound 77]: at PARG (389-976) (Table 3, class symbol), the IC50 is below 100 nM.
`CC1(NS(=O)(=O)c2ccc3c(c2)c(-c2nnc(C(F)F)s2)nn3Cc2ccc3cncn3c2)CC1` [Compound 59] returned an IC50 against PARG (389-976) (Table 2, class symbol) below 100 nM.

These data come from US20230278998A1, “Compound containing structure of a five-membered heteroaromatic ring, pharmaceutical compositions thereof and applications thereof” (280 Bio, Inc., priority 2022, published 2023).
